# Marks after values point to notes of the source that are not given here.
# Tests used:
# [1] = system: patients with end stage renal disease (ESRD) on hemodialysis; assay: Randomized, double-blind, placebo-controlled, dose-ranging study of ferric citrate on serum phosphate, calcium and Ca x PO4; assay type: in vivo, human; conditions: for Serum Ca: Linear Regression: N.S.: Not Significant
# Description: Ferric citrate is supplied in 500 mg capsules, whereas the placebo will be provided in identical-looking capsules (indistinguishable from those containing the active drug); the placebo capsules will contain sorbitol and colorant to match the powder color of the active capsules. The placebo capsule shells will be identical to the active capsule shells.
# An non-limiting example of a dosing regimen is provided below. This is not meant to limit the invention as to how an effective amount of ferric citrate is selected, or the form in which it is provided or the frequency of administering the composition per day. The following merely illustrates how ferric citrate and placebo may be administered; e.g., as 500 mg capsules of identical appearance. All patients may receive (in a blinded fashion) 4 capsules with each of three meals, on a daily basis, for 28 days. Patients will be instructed to take the study medication within 10 minutes of finishing their meals (breakfast, lunch, and dinner).
# Each patient's participation in the trial lasts for up to 8 weeks: the screening period (approximately 1-2 weeks), a 1-2 week washout, and 4 weeks of treatment with study medication.
# The change in serum PO4 concentration at Days 14 and 28 from baseline.
# The change in serum calcium concentration at Days 14 and 28 from baseline.
# The change in the Ca′PO4 product at Days 14 and 28 from baseline.
# Objectives: (1) To determine the effect of ferric citrate at doses of 2, 4 and 6 g daily, administered TID (three times a day), for 28 days on serum phosphate (PO4) levels in patients with end stage renal disease (ESRD). (2) To evaluate the safety of ferric citrate at doses of 2, 4, 6 g daily, administered TID, for 28 days in patients with ESRD.
# Study Design: Randomized, double-blind, placebo-controlled, dose-ranging study to assess the effect of ferric citrate on serum phosphate concentrations in patients with ESRD on hemodialysis. Patients are assessed at Study Days 14 and 28 for effectiveness as measured by serum phosphate concentrations. Patients who received one or more doses of study medication are also assessed for safety.
# Study Duration: 8 weeks (including the screening period, 2 weeks washout, 4 weeks treatment)
# Ferric citrate is administered orally, and is given equally three times a day.
# [2] = system: patients with end stage renal disease (ESRD); conditions: 3 g daily, recent pilot study in ESRD patients; cited from earlier work
# [3] = system: patients with end stage renal disease (ESRD); assay: Open-label extension of Phase II study: serum creatinine level; assay type: in vivo, human; conditions: several patients who received 6 g/day
# Excerpt: Glomerular filtration rate (GFR) level correlates with structural kidney damage and is used as a golden standard to measure kidney function. GFR can be estimated by the biomarkers serum creatinine. As renal function deteriorates, kidney lost its function to excrete creatinine effectively and lead to creatinine retention in the body. Therefore, increase of serum creatinine indicates lowering GFR and is an important sign of kidney deterioration.
# In an open-label extension of a Phase II clinical study: “randomized, double-blind, placebo-controlled, dose-ranging study of the effects of ferric citrate on serum phosphate in patients with end stage renal disease (ESRD)”, some of the patients were administered 2˜6 g/day of ferric citrate and serum creatinine level was monitored to assess kidney function.
# [4] = 2 g/day (N = 31), Day 0 (baseline)
# [5] = 4 g/day (N = 32), Day 0 (baseline)
# [6] = 6 g/day (N = 32), Day 0 (baseline)
# [7] = 6 g/day (N = 32), Day 28, P < 0.05 baseline change vs placebo
# [8] = at 0, 2, and 6 gm/day, TID immediately after meals, oral
substance,measurement,setting,value
ferric citrate,Serum [Ca],[1]; [4],8.78 ± 0.981 mg/dL
same,Serum [PO4],[1]; [4],7.1 ± 1.23 mg/dL
same,[Ca] * [PO4],[1]; [4],62.9 ± 13.25 (mg/dL)^2
same,Serum [Ca],"[1]; 2 g/day (N = 31), Day 14",9.01 ± 1.232 mg/dL
same,Serum [PO4],"[1]; 2 g/day (N = 31), Day 14",6.7 ± 1.50 mg/dL
same,[Ca] * [PO4],"[1]; 2 g/day (N = 31), Day 14",60.3 ± 16.50 (mg/dL)^2
same,Serum [Ca],"[1]; 2 g/day (N = 31), Day 28",9.00 ± 0.953 mg/dL
same,Serum [PO4],"[1]; 2 g/day (N = 31), Day 28",6.9 ± 2.22 mg/dL
same,[Ca] * [PO4],"[1]; 2 g/day (N = 31), Day 28",61.7 ± 21.25 (mg/dL)^2
same,Serum [Ca],[1]; [5],9.02 ± 0.913 mg/dL
same,Serum [PO4],[1]; [5],7.1 ± 1.27 mg/dL
same,[Ca] * [PO4],[1]; [5],63.5 ± 10.69 (mg/dL)^2
same,Serum [Ca],"[1]; 4 g/day (N = 32), Day 14",9.47 ± 0.990 mg/dL
same,Serum [PO4],"[1]; 4 g/day (N = 32), Day 14",6.4 ± 1.56 mg/dL
same,[Ca] * [PO4],"[1]; 4 g/day (N = 32), Day 14",59.9 ± 13.89 (mg/dL)^2
same,Serum [Ca],"[1]; 4 g/day (N = 32), Day 28",9.29 ± 0.960 mg/dL
same,Serum [PO4],"[1]; 4 g/day (N = 32), Day 28",6.0 ± 1.33 mg/dL
same,[Ca] * [PO4],"[1]; 4 g/day (N = 32), Day 28",55.4 ± 13.36 (mg/dL)^2
same,Serum [Ca],[1]; [6],8.99 ± 0.812 mg/dL
same,Serum [PO4],[1]; [6],7.3 ± 1.33 mg/dL
same,[Ca] * [PO4],[1]; [6],65.8 ± 12.19 (mg/dL)^2
same,Serum [Ca],"[1]; 6 g/day (N = 32), Day 14",9.13 ± 0.909 mg/dL
same,Serum [PO4],"[1]; 6 g/day (N = 32), Day 14",6.3 ± 1.72 mg/dL
same,[Ca] * [PO4],"[1]; 6 g/day (N = 32), Day 14",57.5 ± 16.27 (mg/dL)^2
same,Serum [Ca],"[1]; 6 g/day (N = 32), Day 28",9.26 ± 0.865 mg/dL
same,Serum [PO4],[1]; [7],5.8 ± 1.76 mg/dL
same,[Ca] * [PO4],[1]; [7],54.1 ± 17.68* (mg/dL)^2
same,change in Ca*PO4 levels,[1]; 6 gm/day dose at both 14 and 28 days,decreased and were statistically significant
same,Serum Ca: Dose Response,[1]; Day 0,No
same,Ca × PO4: Linear Regression P,[1]; Day 14,P = 0.0401
same,Ca × PO4: Statistical Significant,[1]; Day 14,No
same,Serum Ca: Statistical Significant,[1]; Day 14,No
same,Serum PO4: Statistical Significant,[1]; Day 14,No
same,Serum Ca: Linear Regression,[1]; Day 14,N.S.
same,Ca × PO4: Dose Response,"[1]; Day 14, placebo, 2, 4, 6 g/day",Yes
same,Serum Ca: Dose Response,"[1]; Day 14, placebo, 2, 4, 6 g/day",No
same,Serum PO4: Dose Response,"[1]; Day 14, placebo, 2, 4, 6 g/day",No
same,Ca × PO4: Linear Regression P,[1]; Day 28,P = 0.0158
same,Ca × PO4: Statistical Significant,[1]; Day 28,Yes (6 g/day)
same,Serum Ca: Statistical Significant,[1]; Day 28,No
same,Serum PO4: Linear Regression P,[1]; Day 28,P = 0.0073
same,Serum PO4: Statistical Significant,[1]; Day 28,Yes (6 g/day)
same,Serum Ca: Linear Regression,[1]; Day 28,N.S.
same,Ca × PO4: Dose Response,"[1]; Day 28, placebo, 2, 4, 6 g/day",Yes
same,Serum Ca: Dose Response,"[1]; Day 28, placebo, 2, 4, 6 g/day",No
same,Serum PO4: Dose Response,"[1]; Day 28, placebo, 2, 4, 6 g/day",Yes
same,change in Ca*PO4,[1]; [8],decrease
same,change in serum PO4,[1]; [8],decrease
same,change in serum calcium level,"[1]; during the 28 days, 2, 4, and 6 gm/day",No significant change
same,ability to lower the serum phosphate levels,[1]; patients with ESRD,demonstrated
same,tolerability (GI symptoms),[2],"mild, but tolerable GI symptoms"
same,serum creatinine level,[3],trend of decreased serum creatinine level
